Earlier results, collected in patent publication US8415299B2, “Methods for improved avian performance” (priority 2004, dated 2013).

Assays:
laying hens = details: cited from earlier work
[1] = system: T4 and rT3 deiodination systems; details: rat liver homogenates; cited from earlier work

Structure (SMILES): C=C1C[C@H]2[C@@H]3C=C(C)C4=CC(=O)CC[C@]4(C)[C@H]3CC[C@]2(C)[C@@]1(OC(C)=O)C(C)=O [melengestrol acetate]
- Effect on reproductive system (laying hens; 4 or 8 mg per laying hen per day through the feed (Koch et al. 2004)): reversible regression of the reproductive system

Structure (SMILES): C[C@]12C[C@H](O)[C@H]3[C@@H](CCC4=CC(=O)CC[C@@]43C)[C@@H]1CC[C@@H]2C(=O)CO [corticosterone]
- Laying hens with cessation of egg production (laying hens; 20 to 40 mg/kg diet (Wolford et al. 1983)): 98%

Structure (SMILES): CCNC(=O)[C@@H]1CCCN1C(=O)[C@H](CCCNC(=N)N)NC(=O)[C@H](CC(C)C)NC(=O)[C@@H](CC(C)C)NC(=O)[C@H](Cc1ccc(O)cc1)NC(=O)[C@H](CO)NC(=O)[C@H](Cc1c[nH]c2ccccc12)NC(=O)[C@H](Cc1c[nH]cn1)NC(=O)[C@@H]1CCC(=O)N1 [leuprolide acetate]
- Body weight (laying hens; single i.m. depot injection releasing 60 mcg/kg body weight per day for 30 days): no body weight loss
- Egg production (laying hens; single i.m. depot injection releasing 60 mcg/kg body weight per day for 30 days, second week (Burke and Attia 1994)): 3.5%

Structure (SMILES): I [iodide]
- Effect on egg production (laying hens; 5,000 mg/kg diet): cessation of egg production

Structure (SMILES): [Zn+2] [zinc]
- Action on progesterone production in F1 granulosa cells of the ovary (laying hens; 2,800 mg/kg diet (Johnson and Brake 1992)): inhibitory action
- Inhibition of T4 and rT3 deiodination [1]: potent inhibitor
